Article PMC8952214 (Pharmaceuticals, 2022)
Like-named read-outs stand apart in the source and are kept apart here.

Experiments:
[1] = tested on: A/Parma/05/06 H3N2 (Wisconsin-like); type: biochemical, Influenza A virus
Cytotoxicity assay = type: cell-based, canine; details: dog, MDCK cells (confluent); read-out: CC50 cytotoxic concentration 50%
Experimental: Madin-Darby canine kidney (MDCK, ATCC, CRL-2936) cells were grown at 37 °C in minimal essential medium (MEM, Invitrogen, Paisley, UK) containing 1.2 g/L NaHCO3, and supplemented with 10% inactivated fetal calf serum (FCS, Invitrogen, Paisley, UK), 2 mM glutamine, nonessential amino acids, penicillin (100 IU/mL), and streptomycin (100 μg/mL).
This procedure was performed as reported elsewhere. Briefly, two-fold serial dilutions of each compound and DMSO or H2O in culture medium were incubated at 37 °C with confluent MDCK cells grown in 96-well tissue culture microplates (Nalge Nunc Europe Ltd., Neerijse, Belgium). After 24 and 48 h, the following parameters were evaluated: cell morphology was examined by light microscopy, cell viability was determined by neutral red staining as already described by us, and cell proliferation was evaluated quantitatively by microscopic counts after dispersion into individual cells with trypsin.

[2] = tested on: A/RomaISS/02/08 H1N1 (Brisbane-like) oseltamivir-sensitive virus; assay: microbe, parasite or virus in culture; type: cell-based, Influenza A virus; details: for EC50: Influenza A virus, H1N1, MDCK, 48 h, read-out: EC50 A/Roma H1N1
[3] = tested on: A/Parma/05/06 H3N2 (Wisconsin-like); assay: microbe, parasite or virus in culture; type: cell-based, Influenza A virus; details: for EC50: Influenza A virus, H3N2, MDCK, 48 h, read-out: EC50 A/Parma H3N2
[4] = tested on: A/RomaISS/02/08 H1N1 (Brisbane-like) oseltamivir-sensitive virus; type: biochemical, Influenza A virus
[5] = tested on: A/RomaISS/02/08 H1N1 (Brisbane-like) oseltamivir-sensitive virus; details: Table 1; turkey erythrocytes; cited from earlier work
[6] = tested on: A/RomaISS/02/08 H1N1 (Brisbane-like) oseltamivir-sensitive virus; details: MDCK cells, c.p.e. by neutral red, 48 h; read-out: EC50 A/Roma H1N1; cited from earlier work
A/H1N1 = details: cited from earlier work

| SMILES | HI Titer A/Parma H3N2 [1] | CC50 (Cytotoxicity assay) [nM] | SI (selectivity index) = CC50/EC50, A/Parma H3N2 [3] | HI Titer A/Roma H1N1 [4] [pM] | HI Titer A/Roma H1N1 [5] [µM] | also measured |
| --- | --- | --- | --- | --- | --- | --- |
| O=C(CC1(O)C(=O)Nc2ccccc21)c1ccccn1 (stereo not drawn) [Compound 6] | 480 pM | 31200 | 1.04 × 10^2 |  |  | SI (selectivity index) = CC50/EC50, A/Roma H1N1 [2]: 1.56 × 10^2; EC50 [2]: 200 nM; EC50 [3]: 300 nM |
| N#Cc1ccc(NC(=O)COC(=O)c2ccccn2)cc1 [Compound 7] | 12,500 pM | 31200 | 0.44 × 10^2 | 0.047 |  | SI (selectivity index) = CC50/EC50, A/Roma H1N1 [2]: 0.39 × 10^2; EC50 [2]: 800 nM; EC50 [3]: 700 nM |
| O=C(COC(=O)c1ccccn1)Nc1ccc2c(c1)CCC2 [Compound 24] |  |  |  | 0.024 |  |  |
| Cc1ccc(F)cc1NC(=O)COC(=O)c1ccc2ccccc2n1 [Compound 4] | 480000 pM | 250000 | 2 × 10^3 |  | 0.48 | EC50 [3]: 125 nM; EC50 [6]: 62 nM; activity in hemolysis assays toward A/H1N1 (A/H1N1): active |
| COc1ccc(C(=O)Nc2cccc(S(=O)(=O)NCc3ccco3)c2)cc1 [Compound 3] |  |  |  |  | 0.48 |  |
| Cc1nc(-c2cccc(NC(=O)COC(=O)c3ccc4ccccc4n3)c2)cs1 [Compound 26] |  |  |  | 0.093 |  |  |
| Cc1ccc(NC(=O)COC(=O)c2ccccn2)cc1F [Compound 13] | 6 pM | 31200 | 0.62 × 10^2 | 24 |  | EC50 [2]: 700 nM |
| Cc1ccc2nc(CNc3ccc(C)c(Cl)c3)cc(=O)n2c1 [Compound 5] |  |  |  |  | 0.48 |  |
| Fc1ccc(CNc2ncnc3[nH]cnc23)cc1 [Compound 2] |  |  |  |  | 0.48 |  |
| O=C1CCCN1c1ccc(CNS(=O)(=O)c2ccc(F)cc2)cc1 [Compound 23] |  |  |  | 12 |  |  |
| Cc1ccc(S(=O)(=O)Nc2ccc(-n3ccnc3)c(Cl)c2)cc1 [Compound 28] |  |  |  | 0.093 |  |  |
| Cc1ccc(S(=O)(=O)NC(C)c2ccc(-n3ccnc3)cc2)cc1C (stereo not drawn) [Compound 1] | 480000 pM | 300000 | 3 × 10^3 |  | 0.24 | EC50 [3]: 98 nM; EC50 [6]: 500 nM; activity in hemolysis assays toward A/H1N1 (A/H1N1): active |
| CC(NS(=O)(=O)c1ccc2c(c1)CCC(=O)N2)c1ccc(-n2ccnc2)cc1 (stereo not drawn) [Compound 27] | 25,000 pM |  |  |  |  |  |
| COc1ccc(S(=O)(=O)NCc2ccc(-n3ccnc3)cc2)cc1F [Compound 25] | 50,000 pM | 31200 | 0.39 × 10^2 |  |  | SI (selectivity index) = CC50/EC50, A/Roma H1N1 [2]: 0.34 × 10^2; EC50 [2]: 900 nM |
